In patent US20060241122A1, “Combination therapy for the treatment of neoplasms” (priority 2003, published 2006):

How the values were obtained:
[1] = system: non-small cell lung carcinoma A549 cells; assay: Anti-proliferation assay (Alamar Blue metabolism), A549 cells; format: cell-based; settings: 72 h
Experimental: Inhibition of proliferation was measured by anti-proliferation assay as described below after incubation with the test compound(s) for 72 hours.
(§1) The combination matrices were used immediately and discarded.
Cells were diluted in culture media such that 3,000 SKMEL-28 cells, or 1,500 cells for all the other cell lines, were delivered in 35 μl of media into each assay well. Assay plates were incubated for 16-24 hours 37° C.±0.5° C. with 5% CO2. […] Assay plates were further incubated for 72 hours at 37° C.±0.5° C. with 5% CO2. […] Alamar Blue metabolism was quantified by the amount of fluorescence intensity 3.5-5.0 hours after addition.
The percent inhibition (% I) for each well was calculated using the following formula: % I=[(avg. untreated wells−treated well)/(avg. untreated wells)]×100 The average untreated well value (avg. untreated wells) is the arithmetic mean of 40 wells from the same assay plate treated with vehicle alone.

[2] = system: human pancreatic cancer PANC1 cells; assay: Anti-proliferation assay (Alamar Blue metabolism), PANC1 cells; format: cell-based; settings: 72 h
From the text: as §1

[3] = system: human melanoma SKMEL-28 cells; assay: Anti-proliferation assay (Alamar Blue metabolism), SKMEL-28 cells; format: cell-based; settings: 72 h
From the text: as §1

[4] = system: human prostate cancer DU145 cells; assay: Anti-proliferation assay (Alamar Blue metabolism), DU145 cells; format: cell-based; settings: 72 h
From the text: as §1

[5] = system: human colorectal carcinoma HCT116 cells; assay: Anti-proliferation assay (Alamar Blue metabolism), HCT116 cells; settings: for Percent inhibition of Alamar Blue Metabolism in HCT116 cells: 72 h;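 as to all read-outs here: cells in 384-well plates exposed to compound combination matrices for 72 h, Alamar Blue fluorescence read (excitation 530 nm), inhibition calculated against mean of vehicle-only wells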
Experimental: Stock solutions (1000×) of each compound were prepared in DMSO and stored at −20° C. Master stock plates of 2-fold or 4-fold serial dilutions of individual compounds were prepared in 384-well plates. Combination matrices of test compounds were generated from these master stock plates by dilution into growth media described above. […] The combination matrices were used immediately and discarded.
The anti-proliferation assays were performed in 384-well plates. […] Cells were diluted in culture media such that 3,000 SKMEL-28 cells, or 1,500 cells for all the other cell lines, were delivered in 35 μl of media into each assay well. Assay plates were incubated for 16-24 hours 37° C.±0.5° C. with 5% CO2. After incubation, 4.5 μl of 10× stock solutions from the combination matrices were added to 40 μl of culture media. Assay plates were further incubated for 72 hours at 37° C.±0.5° C. with 5% CO2. […] Alamar Blue metabolism was quantified by the amount of fluorescence intensity 3.5-5.0 hours after addition. Quantification, using an LJL Analyst AD reader (LJL Biosystems), was taken in the middle of the well with high attenuation, a 100 msec read time, an excitation filter at 530 nm, and an emission filter at 575 nm. For some experiments, quantification was performed using a Wallac Victor^2 reader. Measurements were taken at the top of the well with stabilized energy lamp control; a 100 msec read time, an excitation filter at 530 nm, and an emission filter at 590 nm.

## CCC(C)n1ncn(-c2ccc(N3CCN(c4ccc(OCC5COC(Cn6cncn6)(c6ccc(Cl)cc6Cl)O5)cc4)CC3)cc2)c1=O (centres unmarked) [Itraconazole, itraconazole]
[1]; itraconazole 0.87 μM + simvastatin at row conc. c1 (0-48 μM)
  Percent inhibition of Alamar Blue Metabolism in A549 cells: 13.5%
[1]; itraconazole 7 μM + simvastatin at row conc. c1 (0-48 μM)
  Percent inhibition of Alamar Blue Metabolism in A549 cells: 4.0%
[1]; itraconazole 14 μM + simvastatin at row conc. c1 (0-48 μM)
  Percent inhibition of Alamar Blue Metabolism in A549 cells: 13.3%
[1]; itraconazole 28 μM + simvastatin at row conc. c1 (0-48 μM)
  Percent inhibition of Alamar Blue Metabolism in A549 cells: 13.9%
[2]; Table 4: itraconazole 0.87 μM + simvastatin at row conc. c1 (0-48 μM)
  Percent inhibition of Alamar Blue Metabolism in PANC1 cells: 2.6%
[2]; Table 4: itraconazole 7 μM + simvastatin at row conc. c1 (0-48 μM)
  Percent inhibition of Alamar Blue Metabolism in PANC1 cells: −2.6%
[2]; Table 4: itraconazole 14 μM + simvastatin at row conc. c1 (0-48 μM)
  Percent inhibition of Alamar Blue Metabolism in PANC1 cells: 2.1%
[2]; Table 4: itraconazole 28 μM + simvastatin at row conc. c1 (0-48 μM)
  Percent inhibition of Alamar Blue Metabolism in PANC1 cells: 1.7%
[2]; Table 8: itraconazole 0.87 μM + atorvastatin at row conc. c1 (0-36 μM)
  Percent inhibition of Alamar Blue Metabolism in PANC1 cells: 9.8%
[2]; Table 8: itraconazole 7 μM + atorvastatin at row conc. c1 (0-36 μM)
  Percent inhibition of Alamar Blue Metabolism in PANC1 cells: −0.6%
[2]; Table 8: itraconazole 14 μM + atorvastatin at row conc. c1 (0-36 μM)
  Percent inhibition of Alamar Blue Metabolism in PANC1 cells: −4.4%
[2]; Table 8: itraconazole 28 μM + atorvastatin at row conc. c1 (0-36 μM)
  Percent inhibition of Alamar Blue Metabolism in PANC1 cells: −2.5%
[2]; Table 12: itraconazole 0.87 μM + fluvastatin at row conc. c1 (0-49 μM)
  Percent inhibition of Alamar Blue Metabolism in PANC1 cells: 4.9%
[2]; Table 12: itraconazole 7 μM + fluvastatin at row conc. c1 (0-49 μM)
  Percent inhibition of Alamar Blue Metabolism in PANC1 cells: −1.9%
[2]; Table 12: itraconazole 14 μM + fluvastatin at row conc. c1 (0-49 μM)
  Percent inhibition of Alamar Blue Metabolism in PANC1 cells: −8.1%
[2]; Table 12: itraconazole 28 μM + fluvastatin at row conc. c1 (0-49 μM)
  Percent inhibition of Alamar Blue Metabolism in PANC1 cells: −3.7%
[3]; Table 5: itraconazole 0.87 μM + simvastatin at row conc. c1 (0-48 μM)
  Percent inhibition of Alamar Blue Metabolism in SKMEL-28 cells: 1.0%
[3]; Table 5: itraconazole 7 μM + simvastatin at row conc. c1 (0-48 μM)
  Percent inhibition of Alamar Blue Metabolism in SKMEL-28 cells: 13.5%
[3]; Table 5: itraconazole 14 μM + simvastatin at row conc. c1 (0-48 μM)
  Percent inhibition of Alamar Blue Metabolism in SKMEL-28 cells: 19.3%
[3]; Table 5: itraconazole 28 μM + simvastatin (0-48 μM)
  Percent inhibition of Alamar Blue Metabolism in SKMEL-28 cells: 16.7%
[3]; Table 9: itraconazole 0.87 μM + atorvastatin at row conc. c1 (0-36 μM)
  Percent inhibition of Alamar Blue Metabolism in SKMEL-28 cells: 1.4%
[3]; Table 9: itraconazole 7 μM + atorvastatin at row conc. c1 (0-36 μM)
  Percent inhibition of Alamar Blue Metabolism in SKMEL-28 cells: 11.2%
[3]; Table 9: itraconazole 14 μM + atorvastatin at row conc. c1 (0-36 μM)
  Percent inhibition of Alamar Blue Metabolism in SKMEL-28 cells: 13.0%
[3]; Table 9: itraconazole 28 μM + atorvastatin at row conc. c1 (0-36 μM)
  Percent inhibition of Alamar Blue Metabolism in SKMEL-28 cells: 13.5%
[3]; Table 13: itraconazole 0.87 μM + fluvastatin at row conc. c1 (0-49 μM)
  Percent inhibition of Alamar Blue Metabolism in SKMEL-28 cells: 2.8%
[3]; Table 13: itraconazole 7 μM + fluvastatin at row conc. c1 (0-49 μM)
  Percent inhibition of Alamar Blue Metabolism in SKMEL-28 cells: 11.3%
[3]; Table 13: itraconazole 14 μM + fluvastatin at row conc. c1 (0-49 μM)
  Percent inhibition of Alamar Blue Metabolism in SKMEL-28 cells: 13.3%
[3]; Table 13: itraconazole 28 μM + fluvastatin at row conc. c1 (0-49 μM)
  Percent inhibition of Alamar Blue Metabolism in SKMEL-28 cells: 16.3%
[4]; Table 6: itraconazole 0.87 μM + atorvastatin at row conc. c1 (0-36 μM)
  Percent inhibition of Alamar Blue Metabolism in DU145 cells: 0.8%
[4]; Table 6: itraconazole 7 μM + atorvastatin at row conc. c1 (0-36 μM)
  Percent inhibition of Alamar Blue Metabolism in DU145 cells: −3.5%
[4]; Table 6: itraconazole 14 μM + atorvastatin at row conc. c1 (0-36 μM)
  Percent inhibition of Alamar Blue Metabolism in DU145 cells: −4.2%
[4]; Table 6: itraconazole 28 μM + atorvastatin at row conc. c1 (0-36 μM)
  Percent inhibition of Alamar Blue Metabolism in DU145 cells: −8.8%
[4]; Table 10: itraconazole 0.87 μM + fluvastatin at row conc. c1 (0-49 μM)
  Percent inhibition of Alamar Blue Metabolism in DU145 cells: 2.1%
[4]; Table 10: itraconazole 7 μM + fluvastatin at row conc. c1 (0-49 μM)
  Percent inhibition of Alamar Blue Metabolism in DU145 cells: −7.4%
[4]; Table 10: itraconazole 14 μM + fluvastatin at row conc. c1 (0-49 μM)
  Percent inhibition of Alamar Blue Metabolism in DU145 cells: −5.6%
[4]; Table 10: itraconazole 28 μM + fluvastatin at row conc. c1 (0-49 μM)
  Percent inhibition of Alamar Blue Metabolism in DU145 cells: −9.0%
[5]; Homo sapiens, HCT-116, read-out: Percent inhibition of Alamar Blue Metabolism, cerivastatin 0 μM, itraconazole 7 μM
  inhibition at 7 µM: 24.3%
[5]; Homo sapiens, HCT-116, read-out: Percent inhibition of Alamar Blue Metabolism, cerivastatin 0 μM, itraconazole 28 μM
  inhibition at 28 µM: 27.7%
[5]; Table 2: itraconazole 0.87 μM + simvastatin at row conc. c1 (0-48 μM)
  Percent inhibition of Alamar Blue Metabolism in HCT116 cells: 3.9%
[5]; Table 2: itraconazole 7 μM + simvastatin at row conc. c1 (0-48 μM)
  Percent inhibition of Alamar Blue Metabolism in HCT116 cells: 18.9%
[5]; Table 2: itraconazole 14 μM + simvastatin at row conc. c1 (0-48 μM)
  Percent inhibition of Alamar Blue Metabolism in HCT116 cells: 19.2%
[5]; Table 2: itraconazole 28 μM + simvastatin at row conc. c1 (0-48 μM)
  Percent inhibition of Alamar Blue Metabolism in HCT116 cells: 18.6%
[5]; Table 3: itraconazole 0.87 μM + simvastatin sodium at row conc. c1 (0-22 μM)
  Percent inhibition of Alamar Blue Metabolism in HCT116 cells: −10.7%
[5]; Table 3: itraconazole 7 μM + simvastatin sodium at row conc. c1 (0-22 μM)
  Percent inhibition of Alamar Blue Metabolism in HCT116 cells: 12.2%
[5]; Table 3: itraconazole 14 μM + simvastatin sodium at row conc. c1 (0-22 μM)
  Percent inhibition of Alamar Blue Metabolism in HCT116 cells: 10.6%
[5]; Table 3: itraconazole 28 μM + simvastatin sodium at row conc. c1 (0-22 μM)
  Percent inhibition of Alamar Blue Metabolism in HCT116 cells: 17.2%
[5]; Table 7: itraconazole 0.87 μM + atorvastatin at row conc. c1 (0-36 μM)
  Percent inhibition of Alamar Blue Metabolism in HCT116 cells: 1.7%
[5]; Table 7: itraconazole 7 μM + atorvastatin at row conc. c1 (0-36 μM)
  Percent inhibition of Alamar Blue Metabolism in HCT116 cells: 17.4%
[5]; Table 7: itraconazole 14 μM + atorvastatin at row conc. c1 (0-36 μM)
  Percent inhibition of Alamar Blue Metabolism in HCT116 cells: 18.1%
[5]; Table 7: itraconazole 28 μM + atorvastatin at row conc. c1 (0-36 μM)
  Percent inhibition of Alamar Blue Metabolism in HCT116 cells: 18.6%
[5]; Table 11: itraconazole 0.87 μM + fluvastatin at row conc. c1 (0-49 μM)
  Percent inhibition of Alamar Blue Metabolism in HCT116 cells: 2.2%
[5]; Table 11: itraconazole 7 μM + fluvastatin at row conc. c1 (0-49 μM)
  Percent inhibition of Alamar Blue Metabolism in HCT116 cells: 18.9%
[5]; Table 11: itraconazole 14 μM + fluvastatin at row conc. c1 (0-49 μM)
  Percent inhibition of Alamar Blue Metabolism in HCT116 cells: 20.2%
[5]; Table 11: itraconazole 28 μM + fluvastatin at row conc. c1 (0-49 μM)
  Percent inhibition of Alamar Blue Metabolism in HCT116 cells: 20.4%
[5]; Table 14: itraconazole 0.87 μM + lovastatin at row conc. c1 (0-48 μM)
  Percent inhibition of Alamar Blue Metabolism in HCT116 cells: 5.1%
[5]; Table 14: itraconazole 7 μM + lovastatin at row conc. c1 (0-48 μM)
  Percent inhibition of Alamar Blue Metabolism in HCT116 cells: 17.8%
[5]; Table 14: itraconazole 14 μM + lovastatin at row conc. c1 (0-48 μM)
  Percent inhibition of Alamar Blue Metabolism in HCT116 cells: 19.5%
[5]; Table 14: itraconazole 28 μM + lovastatin at row conc. c1 (0-48 μM)
  Percent inhibition of Alamar Blue Metabolism in HCT116 cells: 20.7%
[5]; Table 15: itraconazole 0.87 μM + lovastatin sodium at row conc. c1 (0-22 μM)
  Percent inhibition of Alamar Blue Metabolism in HCT116 cells: −10.9%
[5]; Table 15: itraconazole 7 μM + lovastatin sodium at row conc. c1 (0-22 μM)
  Percent inhibition of Alamar Blue Metabolism in HCT116 cells: 18.0%
[5]; Table 15: itraconazole 14 μM + lovastatin sodium at row conc. c1 (0-22 μM)
  Percent inhibition of Alamar Blue Metabolism in HCT116 cells: 15.1%
[5]; Table 15: itraconazole 28 μM + lovastatin sodium at row conc. c1 (0-22 μM)
  Percent inhibition of Alamar Blue Metabolism in HCT116 cells: 9.1%
